{
  "source": "paper PMC7156724",
  "about": "“Potent BRD4 inhibitor suppresses cancer cell-macrophage interaction” (Nature Communications, 2020)",
  "key": {"[1]": {"system": "A2780 ovarian tumors", "test": "A2780 ovarian subcutaneous tumor growth", "type": "in vivo, mouse", "settings": "for Tumor volume: Fig.3b a2780, 3mg/kg p.o. QD x 15D, n=5, individual animals, in mm³ (unit assumed)", "from_the_text": "PO, oral administration; QD, once daily; BID, twice daily. b–d Tumor growth curves for A2780 ovarian tumor (n = 5) (b), TMD8 large B cell lymphoma (n = 6) (c), and B16F10 melanoma (n = 5) (d) bearing mice treated with the indicated compounds once daily for 11-21 days. e, f Tumor growth curves for A375 melanoma (n = 6) (e), and patient-derived xenograft (PDX) of melanoma (n = 5) (f) bearing mice treated with the indicated compounds once daily (5 days on, 2 days off) for 21 days. For d–f, NHWD-870 used is NHWD-870-HCl synthesized using Suzuki coupling route. Data are presented as mean ± SEM in (a, b, d, f) and mean + SEM in (c, e). p values were calculated using two-tailed, unpaired t tests. *p < 0.05; **p < 0.01; ***p < 0.001. Source data are provided as a Source Data file.\n4–6 weeks old female BALB/c nude mice were used for most experiments, with the exception of 6–8 weeks old female C57BL/6 mice were used for B16F10 experiments, and 6–8 weeks old male BALB/c nude mice and SD rats were used for pharmacokinetic experiments. All animals were purchased from Shanghai SIPPR-Bk Lab Animal Co., Ltd. All animals were housed under a regimen of 12 h light/12 h dark cycles and specific pathogen-free conditions. 5×10^6 NCI-H526, ES-2, MDA-MB231, A2780, A375, B16F10, and TMD-8 cells (0.1 ml) were injected subcutaneously into female nude mice. The melanoma patient-derived xenograft model was derived from a human melanoma sample (BRAF, NARS and NF1 wild type, and p53 mutant) removed from a patient in Xiangya Hospital. Surgically removed tumor fragments were implanted subcutaneously into female NSG mice. When the tumors grew to ~1000 mm^3, they were harvested and cryopreserved or immediately re-implanted for expansion or experiments. Mouse body weight and tumor sizes were measured every 3 days. Once the tumors grew to 150–200 mm^3, mice were treated with the compounds as described in the Figures. 1 × 10^6 A2780 cells (1 ml) were injected into the abdominal cavity of nude mice. Ascitic volume and tumor weight were measured by an electronic balance. All the procedures were evaluated and approved by the Institutional Animal Care and Use Committee of Central South University and Yale University."}, "[2]": {"system": "MDA-MB231 cells", "test": "3D matrigel assay, MDA-MB231", "type": "cell-based, human", "settings": "MDA-MB231, 100 nM", "protocol": "Fig. 2 NHWD-870 inhibited BRD4 phosphorylation and c-MYC expression, and suppressed cell growth. a Representative western blot analysis of p-BRD4 (s484/488), BRD4, c-MYC, and GAPDH after treatment of MDA-MB231, SUM159, A2780 ES-2, and H526 cells with JQ-1 or NHWD-870 at the indicated concentrations for 24 h. GAPDH served as the loading control. Selected from three independent experiments. b MTT assays of H526, A2780, ES-2, and MDA-MB231 cells treated with JQ-1 or NHWD-870 at the indicated concentrations for 5 days. Data are presented as mean ± SEM from three independent experiments. c, d Clonogenic assays of H526, A2780, ES-2 and MDA-MB231 cells treated with 250 nM JQ-1 or NHWD-870 for 5 days. Shown are representative images (c) and quantification of colonies (d). […] Shown are representative images (e) and quantification of relative colony sizes (f). Scale bar, 50 μm. Data are presented as mean ± SEM from five independent experiments. p values were calculated using two-tailed, unpaired t tests in this figure. **p < 0.01; ***p < 0.001. Source data are provided as a Source Data file.\nSingle clone spheroids were generated by culturing A2780, ES-2, H526 and MDA-MB231 cells for 16 h as a hanging drop over a humidified plate in a CO2 incubator in their corresponding complete media. […] The relative spheroid sizes were measured with ImageJ version 1.52s using the 15 representative spheroids."}, "[3]": {"test": "Metabolic stability assay, rat liver microsomes", "settings": "for Remaining in rat liver microsomes (Sup Fig.6b): in % (unit assumed)", "protocol": "7. Metabolic stability assay. The metabolic profile of NHWD-870 was determined using mouse, rat, dog, monkey, and human liver microsomes using the protocols […]\nNo. Compound ID Exat Mass Stock Conc.\n1) 100 mM potassium phosphate buffer, PH7.4; 2) 10mM MgCI2\n1) Intermediate solution: Dilute 5 μL of compound or control from stock solution (10 mM) with 45 uL DMSO,then mixed with 450 μL 1:1 Methanol/Water (Conc.: 10 0 […]\n2) Working solution: Dilute 50 μL from intermediate solution with 450 μL 100 mM potassium phosphate buffer (Conc.: 10 μM, 4.5%MeOH)\n(3) NADPH regenerating system (final Isocitric dehydrogenase conc.= 1 unit/mL at […]\n1) β-Nicotinamide adenine dinucleotide phosphate, Vendor: sigma Cat. No. N0505\n2) Isocitric acid, Vendor: Sigma Cat. No. I1252\n3) Isocitric dehydrogenase, Vendor: sigma Cat. No. I2002\n(4) Liver microsome solution preparation (final concentration o f 0.5 mg protein/mL) […]\nCold ACN including 100 ng/mL Tolbutamide and 100 ng/mL Labetalol as internal […]\n1) Add 10 μL compound or control working solution/well to all plates (T0, T5, T10, T20, T30, T60, NCF60) except matrix blank.\n2) Dispense 680 μL/well microsome solution to 96-well plate as reserv oir according to […]\nplate map. Then add 80 μL/well to every plate by Apricot, incubate the mixture of microsome solution and compound at 37℃ for about 10 min.\n3) Add 10 μL 100 mM potassium phosphate buffer/well to NCF60, incubate at 37℃, […]\n4) After pre-warming, dispense 90 μL/well NADPH regenerating system to 96-well plate as reservoir according to the plate map. Then add 10 μL/well to every plate by Apricot to start reaction.\n5) Incubate at 37℃, start timer 2.\n6) Add 300 (μL/well) stop solution (cold in 4℃, including 100 ng/mL Tolbutamide and 100 ng/mL Labetalol) to terminate the reaction.\n7) The sampling plates are shaked for approx 10 min.\n8) Samples are centrifuged at 4000 rpm for 20 min under 4℃.\n9) While centrifuging, load 8×new 96-well plate with 300 μL HPLC water, then transfer 100 μL supernatant, mixed for LC/MS/MS.\nUse equation of first order kinetics to calculate t1/2 and Clin t(mic): […]\nEquation of first order kinetics: […]"}},
  "note": "Values joined by “and” are separate entries in the source; they are usually repeats but may differ in a detail not shown here. Identical values can stand only once.",
  "data": [
    {"smiles": "Cc1nnn(C)c1-c1cnc2c3c4cnn(C)c4ccc3n([C@H](c3ccccc3)C3CCOCC3)c2c1", "note": "[NHWD-870]", "values": [
      {"measurement": "effect on tumor growth", "setting": "[1]; A2780 ovarian tumors, oral once daily", "result": "strong tumor regression activity"},
      {"measurement": "Tumor volume", "setting": "[1]; day 3", "result": "437 and 185 and 30 and 119 and 617"},
      {"measurement": "Tumor volume", "setting": "[1]; day 6", "result": "183 and 151 and 27 and 79 and 405"},
      {"measurement": "Tumor volume", "setting": "[1]; day 9", "result": "150 and 191 and 22 and 66 and 371"},
      {"measurement": "Tumor volume", "setting": "[1]; day 12", "result": "110 and 138 and 20 and 56 and 270"},
      {"measurement": "Tumor volume", "setting": "[1]; day 15", "result": "91 and 72 and 18 and 40 and 78"},
      {"measurement": "Clone Size (relative colony size, 3D matrigel assay)", "setting": "[2]", "result": "23.2 and 29.8 and 19 and 25.8 and 21.1"},
      {"measurement": "Remaining (T=60min)", "setting": "[3]; rat liver microsomes", "result": 22.3, "unit": "%"},
      {"measurement": "Remaining (*NCF=60min)", "setting": "[3]; rat liver microsomes, no cofactor", "result": 76.0, "unit": "%"},
      {"measurement": "CLint scaled at 1 µM", "setting": "[3]; rat, liver microsomes, pH 7.4", "result": 92, "unit": "mL/min/kg"},
      {"measurement": "half-life at 1 µM", "setting": "[3]; rat, liver microsomes, pH 7.4", "result": 27.1, "unit": "min"},
      {"measurement": "microsomal CLint at 1 µM", "setting": "[3]; rat, microsomes, pH 7.4", "result": 51.1, "unit": "µL/min/mg"},
      {"measurement": "Remaining in rat liver microsomes (Sup Fig.6b)", "setting": "[3]; time 0", "result": 100},
      {"measurement": "Remaining in rat liver microsomes (Sup Fig.6b)", "setting": "[3]; time 5", "result": 91.753},
      {"measurement": "Remaining in rat liver microsomes (Sup Fig.6b)", "setting": "[3]; time 10", "result": 75.9},
      {"measurement": "Remaining in rat liver microsomes (Sup Fig.6b)", "setting": "[3]; time 20", "result": 52.356},
      {"measurement": "Remaining in rat liver microsomes (Sup Fig.6b)", "setting": "[3]; time 30", "result": 42.131},
      {"measurement": "Remaining in rat liver microsomes (Sup Fig.6b)", "setting": "[3]; time 60", "result": 22.275}
    ]}
  ]
}
